Results published in US9212143B2, “Small molecule inhibitors of protein kinases” (priority 2010, dated 2015).

What was measured:
Assay type in all cases: cell-based, human
[1] = test system: TNF/antineutrophil cytoplasmic antibody stimulated neutrophils; test: Respiratory burst in TNF/antineutrophil cytoplasmic antibody stimulated neutrophils (cytochrome c reduction); details: 10 ug/ml compound, TNFα 200 ng/ml, anti-MPO or anti-Pr3; FIGS. 5 and 6
Method: During the respiratory burst of activated neutrophils, reactive oxygen intermediates such as superoxide anion, hydroxyl radical, and hydrogen peroxide are produced. To determine the ability of compounds to affect syk dependent respiratory burst, superoxide anion production was measured in a microplate assay using the reduction of cytochrome c as a reporter assay. Respiratory burst can be induced through two different syk dependent signaling pathways, integrin mediated and Fc Receptor mediated. Compounds were tested in both pathways.
For respiratory burst assays, neutrophils (1×10^6) were added to microtiter plates that were coated with fibrinogen for integrin signaling or uncoated for Fc receptor signaling. […] At the end of the incubations, reduction of cytochrome c was quantified by measuring absorbance at 550 nm using a microplate reader. […]
(§1) Neutrophils were isolated from healthy human donors using Polymorphprep (Axis Shield). […] Reduction of cytochrome c was measured by reading absorbance at 550 nm with a 490 nm reference in a spectrophotometer. […]
as §1

[2] = test system: neutrophils; test: Zymosan phagocytosis by neutrophils (CytoSelect 96-Well Phagocytosis Assay); details: 10 ug/ml compound, zymosan 1.5 hrs; FIG. 10
Method: Inhibition of phagocytosis was carried out using the CytoSelect™ 96-Well Phagocytosis Assay (Cell Biolabs, Inc). The phagocytic target was zymosan (Saccharomyces cerevisiae), made from yeast cell wall. For this assay, neutrophils were seeded onto fibrinogen coated wells in the presence of inhibitor. Zymosan was added, and reactions incubated for 1.5 hr. Phagocytosis was detected by permeabilizing the cells and adding a detection reagent that was quantified colorimetrically in a plate reader at 405 nm.
Neutrophils were isolated from healthy human donors using Polymorphprep (Axis Shield). Cells were equilibrated for 15 minutes at 37° C. in the presence or absence of 10 ug/ml compound, then plated into 96 well plates previously coated with 2 ng/ml fibrinogen. The subsequent phagocytosis assay was carried out using a commercial phagocytosis assay (CytoSelect™ 96-Well Phagocytosis Assay (Zymosan), Cell Biolabs.) Briefly, cells were incubated with zymosan at 37° C. for 1.5 hrs., fixed with 8% formaldehyde for 5 minutes at room temperature, blocked, permeabilized and detection reagent added which detects phagocytosed zymosan. The reaction was developed by adding a substrate and the resulting colorimetric product was detected in a plate reader. ODs were corrected for relative confluence of the cells based on a visual estimate of confluence. Results are reported as corrected ODs.

[3] = test system: syk phosphorylation in integrin/TNF stimulated neutrophils; test: syk phosphorylation in integrin/TNF stimulated neutrophils (in cell Western); details: 10 ug/ml compound, TNFα 200 ng/ml, 1 hr; FIG. 11
Method: Inhibition of syk phosphorylation was tested using the FACEMaker in cell Western Blot kit from Active Motif (Carlsbad, Calif.). In this assay, freshly isolated neutrophils were plated onto fibrinogen coated wells and stimulated with TNF at 200 ng/ml. After 1 hr., cells were fixed in formaldehyde and the Western Blot performed according to the kit instructions, with the final colorimetric product read in a plate reader. Results were corrected for cell number by subsequent staining of the cells with crystal violet and recording OD at 630 nm.
Neutrophils were isolated from healthy human donors using Polymorphprep (Axis Shield). Cells were equilibrated for 15 minutes at 37° C. in the presence or absence of 10 ug/ml compound. TNFα was added to a concentration of 200 ng/ml and cells dispensed into a 96 well strip plate previously coated with 2 mg/ml fibrinogen at 1×10^6 cells/well. Reactions were incubated at 37° C. for 1 hr., and cells fixed with 4% formaldehyde for 20 minutes at room temperature. […] The reaction was developed using the kit developing solution and the resulting colorimetric product read in a plate reader at 450 nm with a 650 nm reference. […]

N#Cc1c(C(F)(F)F)cc(-c2ccc(Br)cc2)nc1SC(C(=O)O)c1ccccc1 (stereo not drawn) [Compound 1, α-[[6-(4-bromophenyl)-3-cyano-4-(trifluoromethyl)-2-pyridinyl]thio]-benzeneacetic acid]
respiratory burst in TNF/antineutrophil cytoplasmic antibody stimulated neutrophils [1]: stimulation
inhibition of zymosan phagocytosis by neutrophils [2]: inhibition
inhibition of syk phosphorylation in integrin/TNF stimulated neutrophils [3]: inhibition
